# Experimental data reported in patent US9051310B2, “Nicotinamide derivative or salt thereof” (FUJIFILM Corporation, priority 2011, dated 2015).
# Molecular target: T1, glutathione S-transferase (GST)-linked full-length human Syk protein (Homo sapiens, UniProt P43405)
# T1 construct: glutathione S-transferase (GST)-linked full-length human Syk protein; purchased Carna Biosciences; host or cells: Baculovirus expression system
# Experiment: Syk enzyme assay
# Format: biochemical
# Settings: 0.83 nM Syk, time-resolved fluorescence; read-out: IC50 of Syk-inhibitory activity
# Procedure: A glutathione S-transferase (GST)-linked full-length human Syk protein (Carna Biosciences), which had been generated using a Baculovirus expression system, was used in the Syk enzyme assay.
# 7.5 μl of a reaction solution (0.83 nM Syk, 20 mM HEPES, 10 mM MgCl2, 50 mM NaCl, 2 mM DTT, 0.05% BSA, pH 7.0) containing a Syk protein and a predetermined concentration of a test compound was shaken for 2 minutes, and it was then left at rest at room temperature for 13 minutes. Thereafter, 0.5 μM substrate peptide (Biotin-[…]-NH2) and 5 μL of a solution containing 67.5 μM ATP were added to the reaction solution, and the obtained mixture was then shaken for 2 minutes. The reaction solution was further left at rest at room temperature for 40 minutes, so as to carry out an enzyme reaction.
# Thereafter, 50 μL of a reaction termination solution [60 nM APC-SA, 0.45 μg/mL Eu-PT66, 30 mM HEPES (pH 7.0), 150 mM KF, 30 mM EDTA, 0.15% BSA, 0.075% Tween20] containing Allophycocyanin-Streptavidin (APC-SA; PerkinElmer) and an Eu-W1024-labeled anti-phosphotyrosine PT66 antibody (Eu-PT66; PerkinElmer) was added to the reaction solution to terminate the enzyme reaction. At the same time, the reaction solution was left at rest at room temperature for 1 hour, so as to carry out an antigen-antibody reaction. Thereafter, using EnVision (PerkinElmer), the level of time-resolved fluorescence was measured at 615 nm and 665 nm, so that the phosphorylation of the substrate peptide was measured.
# The following are used in Table 5 to denote standards for evaluating IC50 of Syk-inhibitory activity. • A: Up to 10 nM • B: 10 to 50 nM • C: 50 to 100 nM
row,Compound,IC50 [nM]
1,"CCn1ncc2c(Nc3nc(N[C@H](C(C)C)[C@H](C)N)c(F)cc3C(N)=O)cccc21 [Example 2-97, 6-(((2S,3R)-2-amino-4-methylpentan-3-yl)amino)-2-((1-ethyl-1H-indazol-4-yl)amino)-5-fluoronicotinamide]",50 to 100
2,"CCCC[C@@H](Nc1nc(Nc2cccc3c2cnn3CC)c(C(N)=O)cc1F)[C@H](C)N [Example 2-99, 6-(((2S,3R)-2-aminoheptan-3-yl)amino)-2-((1-ethyl-1H-indazol-4-yl)amino)-5-fluoronicotinamide]",< 10
3,"CC(C)[C@@H](Nc1nc(Nc2ccc3cnn(C)c3c2)c(C(N)=O)cc1F)[C@H](C)N [Example 2-102, 6-(((2S,3R)-2-amino-4-methylpentan-3-yl)amino)-5-fluoro-2-((1-methyl-1H-indazol-6-yl)amino)nicotinamide]",50 to 100
4,"CCn1ncc2ccc(Nc3nc(N[C@H](C(C)C)[C@H](C)N)c(F)cc3C(N)=O)cc21 [Example 2-103, 6-(((2S,3R)-2-amino-4-methylpentan-3-yl)amino)-2-((1-ethyl-1H-indazol-6-yl)amino)-5-fluoronicotinamide]",50 to 100
5,"CC(C)[C@@H](Nc1nc(Nc2ccc3c(cnn3C)c2)c(C(N)=O)cc1F)[C@H](C)N [Example 2-104, 6-(((2S,3R)-2-amino-4-methylpentan-3-yl)amino)-5-fluoro-2-((1-methyl-1H-indazol-5-yl)amino)nicotinamide]",50 to 100
6,"CCn1ncc2cc(Nc3nc(N[C@H](C(C)C)[C@H](C)N)c(F)cc3C(N)=O)ccc21 [Example 2-105, 6-(((2S,3R)-2-amino-4-methylpentan-3-yl)amino)-2-((1-ethyl-1H-indazol-5-yl)amino)-5-fluoronicotinamide]",10 to 50
7,"COc1cc(Nc2nc(N[C@H](C(C)C)[C@H](C)N)c(F)cc2C(N)=O)ccn1 [Example 2-107, 6-(((2S,3R)-2-amino-4-methylpentan-3-yl)amino)-5-fluoro-2-((2-methoxypyridin-4-yl)amino)nicotinamide]",50 to 100
8,"COc1cc(Nc2nc(N[C@H](C(C)C)[C@H](C)N)c(F)cc2C(N)=O)cc(OC)n1 [Example 2-108, 6-(((2S,3R)-2-amino-4-methylpentan-3-yl)amino)-2-((2,6-dimethoxypyridin-4-yl)amino)-5-fluoronicotinamide]",50 to 100
9,"CC(C)[C@@H](Nc1nc(Nc2cncc(C3CC3)c2)c(C(N)=O)cc1F)[C@H](C)N [Example 2-111, 6-(((2S,3R)-2-amino-4-methylpentan-3-yl)amino)-2-((5-cyclopropylpyridin-3-yl)amino)-5-fluoronicotinamide]",10 to 50
10,"COc1ncc(Nc2nc(N[C@H](CC(C)C)[C@H](C)N)c(F)cc2C(N)=O)cc1-n1nccn1 [Example 2-112, 6-(((2S,3R)-2-amino-5-methylhexan-3-yl)amino)-5-fluoro-2-((6-methoxy-5-(2H-1,2,3-triazol-2-yl)pyridin-3-yl)amino)nicotinamide]",10 to 50
11,"COCCOc1ncc(Nc2nc(N[C@H](C3CC3)[C@H](C)N)c(F)cc2C(N)=O)cc1F [Example 2-115, 6-(((1R,2S)-2-amino-1-cyclopropylpropyl)amino)-5-fluoro-2-((5-fluoro-6-(2-methoxyethoxy)pyridin-3-yl)amino)nicotinamide]",10 to 50
12,"CC[C@@H](Nc1nc(Nc2cnc(OCCOC)c(F)c2)c(C(N)=O)cc1F)[C@H](C)N [Example 2-117, 6-(((2S,3R)-2-aminopentan-3-yl)amino)-5-fluoro-2-((5-fluoro-6-(2-methoxyethoxy)pyridin-3-yl)amino)nicotinamide]",50 to 100
13,"CCC[C@@H](Nc1nc(Nc2cnc(OCCOC)c(F)c2)c(C(N)=O)cc1F)[C@H](C)N [Example 2-118, 6-(((2S,3R)-2-aminohexan-3-yl)amino)-5-fluoro-2-((5-fluoro-6-(2-methoxyethoxy)pyridin-3-yl)amino)nicotinamide]",50 to 100
14,"COCCOc1ncc(Nc2nc(N[C@H](CC(C)C)[C@H](C)N)c(F)cc2C(N)=O)cc1F [Example 2-119, 6-(((2S,3R)-2-amino-5-methylhexan-3-yl)amino)-5-fluoro-2-((5-fluoro-6-(2-methoxyethoxy)pyridin-3-yl)amino)nicotinamide]",10 to 50
15,"COC[C@@H](Nc1nc(Nc2ccc3c(c2)c(N(C)C)nn3C)c(C(N)=O)cc1F)[C@H](C)N [Example 2-120, 6-(((2S,3S)-3-amino-1-methoxybutan-2-yl)amino)-2-((3-(dimethylamino)-1-methyl-1H-indazol-5-yl)amino)-5-fluoronicotinamide]",< 10
16,"COCCOc1ncc(Nc2nc(N[C@H](CC(C)C)[C@H](C)N)c(F)cc2C(N)=O)cc1-n1nccn1 [Example 2-140, 6-(((2S,3R)-2-amino-5-methylhexan-3-yl)amino)-5-fluoro-2-((6-(2-methoxyethoxy)-5-(2H-1,2,3-triazol-2-yl)pyridin-3-yl)amino)nicotinamide]",10 to 50
17,"COc1nn(C)c2c(F)cc(Nc3nc(N[C@H](C4CC4)[C@H](C)N)c(F)cc3C(N)=O)cc12 [Example 2-154, 6-(((1R,2S)-2-amino-1-cyclopropylpropyl)amino)-5-fluoro-2-((7-fluoro-3-methoxy-1-methyl-1H-indazol-5-yl)amino)nicotinamide]",< 10
18,"CCCC[C@@H](Nc1nc(Nc2cc(F)c3c(c2)c(OC)nn3C)c(C(N)=O)cc1F)[C@H](C)N [Example 2-155, 6-(((2S,3R)-2-aminoheptan-3-yl)amino)-5-fluoro-2-((7-fluoro-3-methoxy-1-methyl-1H-indazol-5-yl)amino)nicotinamide]",< 10
19,"COc1nn(C)c2c(F)cc(Nc3nc(N[C@H](CC(C)C)[C@H](C)N)c(F)cc3C(N)=O)cc12 [Example 2-156, 6-(((2S,3R)-2-amino-5-methylhexan-3-yl)amino)-5-fluoro-2-((7-fluoro-3-methoxy-1-methyl-1H-indazol-5-yl)amino)nicotinamide]",< 10
20,"COc1nn(C)c2c(F)cc(Nc3nc(N[C@H](CC4CC4)[C@H](C)N)c(F)cc3C(N)=O)cc12 [Example 2-157, 6-(((2R,3S)-3-amino-1-cyclopropylbutan-2-yl)amino)-5-fluoro-2-((7-fluoro-3-methoxy-1-methyl-1H-indazol-5-yl)amino)nicotinamide]",< 10
21,"CC[C@H](N)[C@@H](CC)Nc1nc(Nc2cc(F)c3c(c2)c(OC)nn3C)c(C(N)=O)cc1F [Example 2-160, 6-(((3R,4S)-4-aminohexan-3-yl)amino)-5-fluoro-2-((7-fluoro-3-methoxy-1-methyl-1H-indazol-5-yl)amino)nicotinamide]",< 10
22,"COCCOc1ncc(Nc2nc(N[C@H](C3CC3)[C@H](C)N)c(F)cc2C(N)=O)cc1-n1nccn1 [Example 2-161, 6-(((1R,2S)-2-amino-1-cyclopropylpropyl)amino)-5-fluoro-2-((6-(2-methoxyethoxy)-5-(2H-1,2,3-triazol-2-yl)pyridin-3-yl)amino)nicotinamide]",10 to 50
23,CCOc1ncc(Nc2nc(N[C@H](C3CC3)[C@H](C)N)c(F)cc2C(N)=O)cc1-n1cccn1 [Example 2-164],10 to 50
24,"COCCOc1ncc(Nc2nc(N[C@H](C3CCC3)[C@H](C)N)c(F)cc2C(N)=O)cc1-n1nccn1 [Example 2-165, 6-(((1R,2S)-2-amino-1-cyclobutylpropyl)amino)-5-fluoro-2-((6-(2-methoxyethoxy)-5-(2H-1,2,3-triazol-2-yl)pyridin-3-yl)amino)nicotinamide]",10 to 50
25,"CCOc1ncc(Nc2nc(N[C@H](C3CCC3)[C@H](C)N)c(F)cc2C(N)=O)cc1-n1ccnn1 [Example 2-167, 6-(((1R,2S)-2-amino-1-cyclobutylpropyl)amino)-2-((6-ethoxy-5-(1H-1,2,3-triazol-1-yl)pyridin-3-yl)amino)-5-fluoronicotinamide]",10 to 50
26,"CCOc1ncc(Nc2nc(N[C@H](C3CCC3)[C@H](C)N)c(F)cc2C(N)=O)cc1-n1cccn1 [Example 2-168, 6-(((1R,2S)-2-amino-1-cyclobutylpropyl)amino)-2-((6-ethoxy-5-(1H-pyrazol-1-yl)pyridin-3-yl)amino)-5-fluoronicotinamide]",10 to 50
27,"C[C@H](N)[C@H](Nc1nc(Nc2ccc3c(c2)c(OC(F)F)nn3C)c(C(N)=O)cc1F)C1CC1 [Example 2-171, 6-(((1R,2S)-2-amino-1-cyclopropylpropyl)amino)-2-((3-(difluoromethoxy)-1-methyl-1H-indazol-5-yl)amino)-5-fluoronicotinamide]",< 10
28,"CC[C@@H](Nc1nc(Nc2ccc3c(c2)c(OC(F)F)nn3CCOC)c(C(N)=O)cc1F)[C@H](C)N [Example 2-175, 6-(((2S,3R)-2-aminopentan-3-yl)amino)-2-((3-(difluoromethoxy)-1-(2-methoxyethyl)-1H-indazol-5-yl)amino)-5-fluoronicotinamide]",< 10
